Measurements as given in US7635572B2, “Methods for conducting assays for enzyme activity on protein microarrays” (Life Technologies Corporation, priority 2004, dated 2009).

What was measured:
Test in all cases: Further analysis of a plurality of inhibitors and a plurality of kinases on microarray (Example IX, Table 5);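 also: inhibition of each kinase by the inhibitors is given as a qualitative level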;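 as to Inhibition level, Homo sapiens in: level 0 none or unclear Level 1 marginal Level 2 substantial inhibition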;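 as to Inhibition level, Homo sapiens, o: level 0 none or unclear Level 1 marginal Level 2 substantial inhibition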;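 as to Inhibition level, LOC57118: level 0 none or unclear then 1 little or marginal then 2 substantial inhibition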;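 as to Inhibition level, MAP4K3: level 0 none or unclear then 1 little or marginal then 2 substantial inhibition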;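 as to Inhibition level, STK6: level 0 no or unclear inhibition to Level 2 substantial inhibition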
Assay type in all cases: biochemical
[1] = target: T1, plurality of kinases (Table 5) (Homo sapiens, UniProt O14965); settings: plate C6
T1 sequence (O14965 1-403): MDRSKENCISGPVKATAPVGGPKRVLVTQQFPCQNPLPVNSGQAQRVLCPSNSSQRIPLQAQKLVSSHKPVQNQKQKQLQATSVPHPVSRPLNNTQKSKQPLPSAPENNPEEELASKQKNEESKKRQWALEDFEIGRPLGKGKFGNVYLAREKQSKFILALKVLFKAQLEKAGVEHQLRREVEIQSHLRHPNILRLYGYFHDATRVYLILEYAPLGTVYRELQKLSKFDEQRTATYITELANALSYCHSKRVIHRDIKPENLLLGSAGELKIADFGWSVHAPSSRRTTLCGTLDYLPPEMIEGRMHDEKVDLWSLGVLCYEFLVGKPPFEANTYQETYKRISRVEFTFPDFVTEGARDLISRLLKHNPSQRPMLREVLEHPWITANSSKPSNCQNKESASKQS

[2] = target: plurality of kinases (Table 5) (Homo sapiens, UniProt P09769); settings: plate B10
[3] = target: plurality of kinases (Table 5) (Homo sapiens, UniProt P24723); settings: plate B3
[4] = target: plurality of kinases (Table 5) (Homo sapiens, UniProt Q8IU85); settings: plate D2; inhibitor 100 uM
[5] = target: T2, plurality of kinases (Table 5) (Homo sapiens, UniProt Q8IVH8); settings: plate C5; inhibitor 100 uM
T2 sequence (Q8IVH8 1-894): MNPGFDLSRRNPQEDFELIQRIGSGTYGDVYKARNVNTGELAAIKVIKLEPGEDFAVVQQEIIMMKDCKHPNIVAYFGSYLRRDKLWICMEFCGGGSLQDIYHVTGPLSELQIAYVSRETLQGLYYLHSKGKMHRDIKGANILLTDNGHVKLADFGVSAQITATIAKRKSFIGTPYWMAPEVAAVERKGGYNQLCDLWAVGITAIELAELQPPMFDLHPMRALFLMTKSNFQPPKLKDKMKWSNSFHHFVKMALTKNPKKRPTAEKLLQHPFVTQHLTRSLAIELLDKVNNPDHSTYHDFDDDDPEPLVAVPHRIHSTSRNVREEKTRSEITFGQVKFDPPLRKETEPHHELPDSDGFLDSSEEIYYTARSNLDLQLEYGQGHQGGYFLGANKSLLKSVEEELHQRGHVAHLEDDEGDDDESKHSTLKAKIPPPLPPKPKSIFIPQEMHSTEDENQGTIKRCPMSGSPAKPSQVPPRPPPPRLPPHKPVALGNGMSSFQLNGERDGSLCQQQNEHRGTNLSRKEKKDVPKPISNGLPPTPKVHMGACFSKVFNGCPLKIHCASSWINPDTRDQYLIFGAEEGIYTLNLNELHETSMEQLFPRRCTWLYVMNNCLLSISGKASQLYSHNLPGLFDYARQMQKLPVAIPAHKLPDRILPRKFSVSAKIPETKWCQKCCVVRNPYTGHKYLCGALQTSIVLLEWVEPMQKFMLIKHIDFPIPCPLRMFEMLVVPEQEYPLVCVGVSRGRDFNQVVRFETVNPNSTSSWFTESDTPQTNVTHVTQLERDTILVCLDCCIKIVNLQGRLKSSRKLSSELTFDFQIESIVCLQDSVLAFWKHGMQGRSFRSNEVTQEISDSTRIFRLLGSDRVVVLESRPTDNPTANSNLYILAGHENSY

[6] = target: T3, plurality of kinases (Table 5) (Homo sapiens, UniProt Q9Y616); settings: plate C9; inhibitor 100 uM
T3 sequence (Q9Y616 1-596): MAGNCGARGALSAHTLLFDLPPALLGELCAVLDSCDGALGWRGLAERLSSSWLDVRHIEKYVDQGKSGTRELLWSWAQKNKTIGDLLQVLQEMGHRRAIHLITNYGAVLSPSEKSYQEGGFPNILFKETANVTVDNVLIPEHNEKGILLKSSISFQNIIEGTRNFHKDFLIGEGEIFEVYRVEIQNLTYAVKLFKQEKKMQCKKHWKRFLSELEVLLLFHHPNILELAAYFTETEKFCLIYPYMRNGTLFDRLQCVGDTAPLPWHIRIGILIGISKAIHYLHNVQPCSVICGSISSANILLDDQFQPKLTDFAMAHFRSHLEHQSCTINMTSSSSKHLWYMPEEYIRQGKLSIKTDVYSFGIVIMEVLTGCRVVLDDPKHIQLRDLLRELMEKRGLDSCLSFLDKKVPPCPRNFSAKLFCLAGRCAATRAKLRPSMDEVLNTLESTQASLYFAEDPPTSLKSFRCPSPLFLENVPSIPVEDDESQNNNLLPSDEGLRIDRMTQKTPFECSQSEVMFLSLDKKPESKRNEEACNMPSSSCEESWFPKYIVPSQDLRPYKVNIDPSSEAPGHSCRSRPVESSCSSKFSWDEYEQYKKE

[7] = tested on: plurality of kinases (Table 5); settings: for Inhibition level, Homo sapiens c: plate F4; for Inhibition level, Homo sapiens, o: plate F5; for Inhibition level, Homo sapiens, B: plate F7; for Inhibition level, Homo sapiens in: plate F9; for Inhibition level, Homo sapiens p: plate F10

plurality of kinases (Table 5) (Homo sapiens, UniProt Q8IU85), sequence (Q8IU85 whole entry): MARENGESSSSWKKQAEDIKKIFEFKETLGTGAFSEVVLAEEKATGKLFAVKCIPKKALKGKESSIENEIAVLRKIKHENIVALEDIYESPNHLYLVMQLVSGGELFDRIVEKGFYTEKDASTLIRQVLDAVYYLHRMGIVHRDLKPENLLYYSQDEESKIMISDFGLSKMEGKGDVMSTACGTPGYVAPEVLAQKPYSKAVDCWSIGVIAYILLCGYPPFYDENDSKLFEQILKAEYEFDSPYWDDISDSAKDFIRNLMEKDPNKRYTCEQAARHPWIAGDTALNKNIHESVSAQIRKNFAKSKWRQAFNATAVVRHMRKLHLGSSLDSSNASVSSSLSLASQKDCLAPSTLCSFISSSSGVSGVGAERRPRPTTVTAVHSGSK
plurality of kinases (Table 5) (Homo sapiens, UniProt P24723), sequence (P24723 whole entry): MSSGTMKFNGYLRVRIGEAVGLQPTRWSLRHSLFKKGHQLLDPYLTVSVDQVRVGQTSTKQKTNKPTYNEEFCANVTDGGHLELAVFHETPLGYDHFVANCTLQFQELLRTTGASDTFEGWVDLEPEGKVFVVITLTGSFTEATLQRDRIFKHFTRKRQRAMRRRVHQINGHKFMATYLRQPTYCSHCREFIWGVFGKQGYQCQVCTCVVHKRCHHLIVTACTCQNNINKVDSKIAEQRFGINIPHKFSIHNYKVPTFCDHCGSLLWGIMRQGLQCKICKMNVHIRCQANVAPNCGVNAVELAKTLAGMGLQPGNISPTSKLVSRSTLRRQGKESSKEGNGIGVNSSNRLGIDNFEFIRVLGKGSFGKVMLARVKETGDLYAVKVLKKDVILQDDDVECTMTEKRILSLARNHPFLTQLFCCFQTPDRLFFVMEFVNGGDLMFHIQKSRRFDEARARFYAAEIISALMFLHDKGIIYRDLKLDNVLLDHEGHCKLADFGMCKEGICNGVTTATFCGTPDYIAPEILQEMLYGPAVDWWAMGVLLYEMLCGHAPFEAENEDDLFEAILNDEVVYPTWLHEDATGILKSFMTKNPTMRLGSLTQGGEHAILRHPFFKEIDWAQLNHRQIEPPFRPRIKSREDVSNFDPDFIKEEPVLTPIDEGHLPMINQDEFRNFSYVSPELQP
plurality of kinases (Table 5) (Homo sapiens, UniProt P09769), sequence (P09769 whole entry): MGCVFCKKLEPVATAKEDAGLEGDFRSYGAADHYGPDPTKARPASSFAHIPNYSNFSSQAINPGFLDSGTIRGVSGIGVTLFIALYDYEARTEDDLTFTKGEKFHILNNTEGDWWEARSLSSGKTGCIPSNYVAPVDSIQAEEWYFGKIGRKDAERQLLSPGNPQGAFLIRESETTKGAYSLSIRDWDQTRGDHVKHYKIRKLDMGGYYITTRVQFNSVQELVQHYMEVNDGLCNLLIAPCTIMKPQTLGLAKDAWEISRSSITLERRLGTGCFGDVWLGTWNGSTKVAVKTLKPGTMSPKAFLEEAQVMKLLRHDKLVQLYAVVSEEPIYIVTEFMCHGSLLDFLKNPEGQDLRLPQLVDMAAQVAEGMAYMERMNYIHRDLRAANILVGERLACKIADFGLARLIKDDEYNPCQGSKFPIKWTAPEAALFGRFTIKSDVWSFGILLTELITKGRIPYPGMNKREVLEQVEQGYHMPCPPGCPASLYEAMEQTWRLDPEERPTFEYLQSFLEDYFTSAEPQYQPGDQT

Inhibition level, STK6 ([1]; inhibitor 100 uM) | SMILES | Inhibition level, FGR ([2]; inhibitor 100 uM) | Inhibition level, PRKCH ([3]; inhibitor 100 uM) | Inhibition level, LOC57118 [4] | Inhibition level, MAP4K3 [5] | Inhibition level, IRAK3 [6] | Inhibition level, Homo sapiens, S ([7]; plate E9, inhibitor 100 uM) | Inhibition level, Homo sapiens, s ([7]; plate E11, inhibitor 100 uM) | Inhibition level, Homo sapiens, s ([7]; plate F3, inhibitor 100 uM) | Inhibition level, Homo sapiens c ([7]; inhibitor 100 uM) | Inhibition level, Homo sapiens, o ([7]; inhibitor 100 uM) | Inhibition level, Homo sapiens, S ([7]; plate F6, inhibitor 100 uM) | Inhibition level, Homo sapiens, B ([7]; inhibitor 100 uM) | Inhibition level, Homo sapiens, s ([7]; plate F8, inhibitor 100 uM) | Inhibition level, Homo sapiens in ([7]; inhibitor 100 uM) | Inhibition level, Homo sapiens p ([7]; inhibitor 100 uM) | other results
2 | O=c1c(-c2ccc(O)cc2)coc2cc(O)cc(O)c12 [Genistein] | 2 | 2 | 0 | 2 | 2 | 2 | 2 | 1 | 2 | 2 | 0 | 2 | 0 | 1 | 2 | Inhibition level, STK6 ([1]; Genistein <3.7 mM): 0; Inhibition level, FGR ([2]; Genistein, conc. not given): 2; Inhibition level, PRKCH ([3]; Genistein, conc. not given): 0; Inhibition level, Homo sapiens, s ([7]; plate F3, Genistein, conc. not given): 0; Inhibition level, Homo sapiens, o ([7]; Genistein, conc. not given): 0; Inhibition level, Homo sapiens, S ([7]; plate F6, Genistein, conc. not given): 0; Inhibition level, Homo sapiens, B ([7]; Genistein, conc. not given): 0; Inhibition level, Homo sapiens, s ([7]; plate F8, Genistein, conc. not given): 0; Inhibition level, Homo sapiens in ([7]; Genistein, conc. not given): 0; Inhibition level, Homo sapiens p ([7]; Genistein, conc. not given): 2
0 | O=S(=O)(NCCNC/C=C/c1ccc(Br)cc1)c1cccc2cnccc12 [H-89] | 2 | 2 | 1 | 1 | 0 | 2 | 1 | 2 | 2 | 1 | 2 | 0 | 1 | 2 | 2 | 
2 | CC(C)(C)n1nc(-c2ccc(Cl)cc2)c2c(N)ncnc21 [PP2] | 2 | 2 | 0 | 2 | 2 | 2 | 2 | 2 | 2 | 2 | 2 | 2 | 0 | 2 | 2 | 
 | O=c1c(O)c(-c2ccc(O)c(O)c2)oc2cc(O)cc(O)c12 [Quercetin] | 2 | 0 | 0 | 1 | 0 |  |  |  |  |  |  |  |  |  |  | 
2 | Cn1cc(C2=C(c3cn(CCCSC(=N)N)c4ccccc34)C(=O)NC2=O)c2ccccc21 [Ro-31-8220] | 2 | 2 | 0 | 2 | 2 | 0 | 2 | 2 | 2 | 2 | 2 | 0 | 0 | 0 | 2 | Inhibition level, STK6 ([1]; Ro-31-8220 90 uM): 0; Inhibition level, FGR ([2]; Ro-31-8220, conc. not given): 2; Inhibition level, PRKCH ([3]; Ro-31-8220, conc. not given): 2; Inhibition level, Homo sapiens, s ([7]; plate F3, Ro-31-8220, conc. not given): 2; Inhibition level, Homo sapiens, o ([7]; Ro-31-8220, conc. not given): 0; Inhibition level, Homo sapiens, S ([7]; plate F6, Ro-31-8220, conc. not given): 0; Inhibition level, Homo sapiens, B ([7]; Ro-31-8220, conc. not given): 2; Inhibition level, Homo sapiens, s ([7]; plate F8, Ro-31-8220, conc. not given): 2; Inhibition level, Homo sapiens in ([7]; Ro-31-8220, conc. not given): 2; Inhibition level, Homo sapiens p ([7]; Ro-31-8220, conc. not given): 2
 | CN[C@@H]1C[C@H]2O[C@@](C)([C@@H]1OC)n1c3ccccc3c3c4c(c5c6ccccc6n2c5c31)C(=O)NC4 [Staurosporine] |  |  |  |  |  |  |  |  |  |  |  |  |  |  |  | Inhibition level, STK6 ([1]; Staurosporine 21.5 uM): 0; Inhibition level, FGR ([2]; Staurosporine, conc. not given): 2

SMILES | Inhibition level, STK6 ([1]; inhibitor 100 uM) | Inhibition level, FGR ([2]; inhibitor 100 uM) | Inhibition level, PRKCH ([3]; inhibitor 100 uM) | Inhibition level, LOC57118 [4] | Inhibition level, MAP4K3 [5] | Inhibition level, IRAK3 [6] | Inhibition level, Homo sapiens, S ([7]; plate E9, inhibitor 100 uM) | Inhibition level, Homo sapiens, s ([7]; plate E11, inhibitor 100 uM) | Inhibition level, Homo sapiens, s ([7]; plate F3, inhibitor 100 uM) | Inhibition level, Homo sapiens c ([7]; inhibitor 100 uM) | Inhibition level, Homo sapiens, o ([7]; inhibitor 100 uM) | Inhibition level, Homo sapiens, S ([7]; plate F6, inhibitor 100 uM) | Inhibition level, Homo sapiens, B ([7]; inhibitor 100 uM) | Inhibition level, Homo sapiens, s ([7]; plate F8, inhibitor 100 uM) | Inhibition level, Homo sapiens in ([7]; inhibitor 100 uM) | Inhibition level, Homo sapiens p ([7]; inhibitor 100 uM) | other results
N#C/C(=C/c1ccc(O)c(O)c1)C(=O)NCc1ccccc1 [AG 490] | 2 | 2 | 2 | 1 | 1 | 0 | 0 | 2 | 0 | 2 | 2 | 0 | 2 | 0 | 1 | 2 | 
COc1cc2ncnc(Nc3cccc(Cl)c3)c2cc1OC [AG 1478] | 0 | 2 | 0 | 0 | 2 | 2 | 0 | 2 | 2 | 2 | 2 | 1 | 2 | 0 | 2 | 2 | 
CC(=O)c1c(O)c(C)c(O)c(Cc2c(O)c3c(c(C(=O)/C=C/c4ccccc4)c2O)OC(C)(C)C=C3)c1O [Rottlerin (Mallotoxin)] | 2 | 2 | 2 | 0 | 1 | 2 | 2 | 2 | 0 | 0 | 0 | 0 | 2 | 0 | 0 | 2 | 
